Test results as given in patent US9099654B2, “Benzofluorene compound, emission materials and organic electroluminescent device” (JNC Corporation, priority 2006, dated 2015).

Assay: Solubility in solvents at 25° C. (Table 1)
Format: physicochemical

Row | SMILES | Solubility (25° C.) g/100 ml (ethyl acetate) [g/100 ml] | Solubility (25° C.) g/100 ml (toluene) [g/100 ml] | solubility in the solvents compared with compound (2) (ethyl acetate and toluene, comparison in words)
1 | c1ccc(C2(c3ccccc3)c3cc(-c4ccc5ccccc5c4)ccc3-c3c2cc(-c2ccc4ccccc4c2)c2ccccc32)cc1 [Compound (1-13)] | 1 | 8 | apparently more excellent in solubility in the solvents than the compound (2)
2 | c1ccc(C2(c3ccccc3)c3cc(-c4ccc5ccccc5c4)ccc3-c3ccc4cc(-c5ccc6ccccc6c5)ccc4c32)cc1 [Compound (2), 3,9-dinaphthalene-2-yl-11,11-diphenyl-11H-benzo[a]fluorene, reference compound] | 0.2 | 0.9 | –
